Test system: Escherichia coli
Test: microbe, parasite or virus in culture
Conditions: ATCC 25922, 18 h, ASSAY_TEST Inhibition of Bacterial Growth, detection method Absorption (OD600), MEDIA CAMHB, plate type 384well, NBS, CORNING #3640
Description: Antibacterial activity against Escherichia coli ATCC 25922 (CO-ADD:GN_001); MIC in CAMBH media using NBS plates, by OD(600)

| SMILES | MIC |
| --- | --- |
| CC(=N)Nc1cc(C(=O)Nc2cc(C(=O)Nc3cc(C(=O)NCCCN(C)C)n(C)c3)n(C)c2)n(C)c1.O=C(O)C(F)(F)F.O=C(O)C(F)(F)F | > 32 µg/mL |
| CC(C)c1sc(NC(=O)c2cc(NC(=O)c3cc(NC(=O)c4cc5ccccc5cn4)cn3C)cn2C)nc1C(=O)NCCN1CCOCC1.O=C(O)C(F)(F)F | > 32 µg/mL |
| COc1cccc(/C=C/c2ccc(C(=O)Nc3cc(C(=O)Nc4cc(C(=O)NCCN5CCOCC5)n(C(C)C)c4)n(C)c3)cc2)c1.O=C(O)C(F)(F)F | > 32 µg/mL |

The next lines start with the values.

| MIC | SMILES |
| --- | --- |
| > 32 µg/mL | COc1ccc(/C=C/c2ccc(C(=O)Nc3cc(C(=O)Nc4cc(C(=O)NCCN5CCC(O)CC5)n(C)c4)n(C)c3)cn2)cc1.O=C(O)C(F)(F)F.O=C(O)C(F)(F)F |
| > 32 µg/mL | COC(=O)CCC(=O)Nc1cc(C(=O)Nc2cc(C(=O)Nc3nc(C(=O)NCCCN(C)C)c(CCC(C)C)s3)n(C)c2)n(C)c1 |
| 32 µg/mL | CC(C)CCn1cc(NC(=O)c2cc(NC(=O)c3cc(NC(=N)c4cnc5ccccc5c4)cn3C)cn2C)cc1C(=O)NCCCN(C)C.O=C(O)C(F)(F)F.O=C(O)C(F)(F)F |

Test system: Staphylococcus aureus
Test: microbe, parasite or virus in culture
Conditions: ATCC 43300, 18 h, ASSAY_TEST Inhibition of Bacterial Growth, detection method Absorption (OD600), MEDIA CAMHB, plate type 384well, NBS, CORNING #3640
Description: Antibacterial activity against Staphylococcus aureus MRSA ATCC 43300 (CO-ADD:GP_020); MIC in CAMBH media, using NBS plates, by OD(600)

| SMILES | MIC |
| --- | --- |
| CC(=N)Nc1cc(C(=O)Nc2cc(C(=O)Nc3cc(C(=O)NCCCN(C)C)n(C)c3)n(C)c2)n(C)c1.O=C(O)C(F)(F)F.O=C(O)C(F)(F)F | > 32 µg/mL |
| CC(C)c1sc(NC(=O)c2cc(NC(=O)c3cc(NC(=O)c4cc5ccccc5cn4)cn3C)cn2C)nc1C(=O)NCCN1CCOCC1.O=C(O)C(F)(F)F | > 32 µg/mL |
| COc1cccc(/C=C/c2ccc(C(=O)Nc3cc(C(=O)Nc4cc(C(=O)NCCN5CCOCC5)n(C(C)C)c4)n(C)c3)cc2)c1.O=C(O)C(F)(F)F | > 32 µg/mL |

Next, values leading:

| MIC | SMILES |
| --- | --- |
| > 32 µg/mL | COc1ccc(/C=C/c2ccc(C(=O)Nc3cc(C(=O)Nc4cc(C(=O)NCCN5CCC(O)CC5)n(C)c4)n(C)c3)cn2)cc1.O=C(O)C(F)(F)F.O=C(O)C(F)(F)F |
| > 32 µg/mL | COC(=O)CCC(=O)Nc1cc(C(=O)Nc2cc(C(=O)Nc3nc(C(=O)NCCCN(C)C)c(CCC(C)C)s3)n(C)c2)n(C)c1 |
| 32 µg/mL | CC(C)CCn1cc(NC(=O)c2cc(NC(=O)c3cc(NC(=N)c4cnc5ccccc5c4)cn3C)cn2C)cc1C(=O)NCCCN(C)C.O=C(O)C(F)(F)F.O=C(O)C(F)(F)F |

Test system: HEK293
Test: cells
Assay type: functional, Homo sapiens, ATCC CRL1573
Conditions: Homo sapiens, ATCC CRL1573, HEK293; ASSAY_TEST Inhibition of Cell Viability; detection method Resazurin; Fluorescence (ex560/em590); MEDIA DMEM with 10% FBS; plate type 384well; TC; CORNING #3712; time 18 hr; read-out: CC50

| SMILES | CC50 |
| --- | --- |
| COc1ccc(/C=C/c2ccc(C(=O)Nc3cc(C(=O)Nc4cc(C(=O)NCCN5CCC(O)CC5)n(C)c4)n(C)c3)cn2)cc1.O=C(O)C(F)(F)F.O=C(O)C(F)(F)F | > 32 µg/mL |
| COC(=O)CCC(=O)Nc1cc(C(=O)Nc2cc(C(=O)Nc3nc(C(=O)NCCCN(C)C)c(CCC(C)C)s3)n(C)c2)n(C)c1 | > 32 µg/mL |
| CC(=N)Nc1cc(C(=O)Nc2cc(C(=O)Nc3cc(C(=O)NCCCN(C)C)n(C)c3)n(C)c2)n(C)c1.O=C(O)C(F)(F)F.O=C(O)C(F)(F)F | > 32 µg/mL |
| CC(C)CCn1cc(NC(=O)c2cc(NC(=O)c3cc(NC(=N)c4cnc5ccccc5c4)cn3C)cn2C)cc1C(=O)NCCCN(C)C.O=C(O)C(F)(F)F.O=C(O)C(F)(F)F | 11.6 µg/mL |
| CC(C)c1sc(NC(=O)c2cc(NC(=O)c3cc(NC(=O)c4cc5ccccc5cn4)cn3C)cn2C)nc1C(=O)NCCN1CCOCC1.O=C(O)C(F)(F)F | > 32 µg/mL |
| COc1cccc(/C=C/c2ccc(C(=O)Nc3cc(C(=O)Nc4cc(C(=O)NCCN5CCOCC5)n(C(C)C)c4)n(C)c3)cc2)c1.O=C(O)C(F)(F)F | 4.31 µg/mL |

Test system: Pseudomonas aeruginosa
Test: microbe, parasite or virus in culture
Conditions: ATCC 27853, 18 h, ASSAY_TEST Inhibition of Bacterial Growth, detection method Absorption (OD600), MEDIA CAMHB, plate type 384well, NBS, CORNING #3640
Description: Antibacterial activity against Pseudomonas aeruginosa ATCC 27853 (CO-ADD:GN_042); MIC in CAMBH media using NBS plates, by OD(600)

| SMILES | MIC |
| --- | --- |
| CC(=N)Nc1cc(C(=O)Nc2cc(C(=O)Nc3cc(C(=O)NCCCN(C)C)n(C)c3)n(C)c2)n(C)c1.O=C(O)C(F)(F)F.O=C(O)C(F)(F)F | > 32 µg/mL |
| CC(C)c1sc(NC(=O)c2cc(NC(=O)c3cc(NC(=O)c4cc5ccccc5cn4)cn3C)cn2C)nc1C(=O)NCCN1CCOCC1.O=C(O)C(F)(F)F | > 32 µg/mL |
| COc1cccc(/C=C/c2ccc(C(=O)Nc3cc(C(=O)Nc4cc(C(=O)NCCN5CCOCC5)n(C(C)C)c4)n(C)c3)cc2)c1.O=C(O)C(F)(F)F | > 32 µg/mL |

The remaining lines, values ahead:

| MIC | SMILES |
| --- | --- |
| > 32 µg/mL | COc1ccc(/C=C/c2ccc(C(=O)Nc3cc(C(=O)Nc4cc(C(=O)NCCN5CCC(O)CC5)n(C)c4)n(C)c3)cn2)cc1.O=C(O)C(F)(F)F.O=C(O)C(F)(F)F |
| > 32 µg/mL | COC(=O)CCC(=O)Nc1cc(C(=O)Nc2cc(C(=O)Nc3nc(C(=O)NCCCN(C)C)c(CCC(C)C)s3)n(C)c2)n(C)c1 |
| > 32 µg/mL | CC(C)CCn1cc(NC(=O)c2cc(NC(=O)c3cc(NC(=N)c4cnc5ccccc5c4)cn3C)cn2C)cc1C(=O)NCCCN(C)C.O=C(O)C(F)(F)F.O=C(O)C(F)(F)F |

Test system: Cryptococcus neoformans
Test: not given
Conditions: not given

| SMILES | MIC |
| --- | --- |
| CC(=N)Nc1cc(C(=O)Nc2cc(C(=O)Nc3cc(C(=O)NCCCN(C)C)n(C)c3)n(C)c2)n(C)c1.O=C(O)C(F)(F)F.O=C(O)C(F)(F)F | > 32 µg/mL |
| CC(C)c1sc(NC(=O)c2cc(NC(=O)c3cc(NC(=O)c4cc5ccccc5cn4)cn3C)cn2C)nc1C(=O)NCCN1CCOCC1.O=C(O)C(F)(F)F | 32 µg/mL |
| COc1cccc(/C=C/c2ccc(C(=O)Nc3cc(C(=O)Nc4cc(C(=O)NCCN5CCOCC5)n(C(C)C)c4)n(C)c3)cc2)c1.O=C(O)C(F)(F)F | > 32 µg/mL |

Next, values leading:

| MIC | SMILES |
| --- | --- |
| > 32 µg/mL | COc1ccc(/C=C/c2ccc(C(=O)Nc3cc(C(=O)Nc4cc(C(=O)NCCN5CCC(O)CC5)n(C)c4)n(C)c3)cn2)cc1.O=C(O)C(F)(F)F.O=C(O)C(F)(F)F |
| > 32 µg/mL | COC(=O)CCC(=O)Nc1cc(C(=O)Nc2cc(C(=O)Nc3nc(C(=O)NCCCN(C)C)c(CCC(C)C)s3)n(C)c2)n(C)c1 |
| 8 µg/mL | CC(C)CCn1cc(NC(=O)c2cc(NC(=O)c3cc(NC(=N)c4cnc5ccccc5c4)cn3C)cn2C)cc1C(=O)NCCCN(C)C.O=C(O)C(F)(F)F.O=C(O)C(F)(F)F |

Test system: Acinetobacter baumannii
Test: microbe, parasite or virus in culture
Conditions: ATCC 19606, 18 h, ASSAY_TEST Inhibition of Bacterial Growth, detection method Absorption (OD600), MEDIA CAMHB, plate type 384well, NBS, CORNING #3640
Description: Antibacterial activity against Acinetobacter baumannii ATCC 19606 (CO-ADD:GN_034); MIC in CAMBH media using NBS plates, by OD600

| SMILES | MIC |
| --- | --- |
| CC(=N)Nc1cc(C(=O)Nc2cc(C(=O)Nc3cc(C(=O)NCCCN(C)C)n(C)c3)n(C)c2)n(C)c1.O=C(O)C(F)(F)F.O=C(O)C(F)(F)F | > 32 µg/mL |
| CC(C)c1sc(NC(=O)c2cc(NC(=O)c3cc(NC(=O)c4cc5ccccc5cn4)cn3C)cn2C)nc1C(=O)NCCN1CCOCC1.O=C(O)C(F)(F)F | > 32 µg/mL |
| COc1cccc(/C=C/c2ccc(C(=O)Nc3cc(C(=O)Nc4cc(C(=O)NCCN5CCOCC5)n(C(C)C)c4)n(C)c3)cc2)c1.O=C(O)C(F)(F)F | > 32 µg/mL |

Now from value to compound:

| MIC | SMILES |
| --- | --- |
| > 32 µg/mL | COc1ccc(/C=C/c2ccc(C(=O)Nc3cc(C(=O)Nc4cc(C(=O)NCCN5CCC(O)CC5)n(C)c4)n(C)c3)cn2)cc1.O=C(O)C(F)(F)F.O=C(O)C(F)(F)F |
| > 32 µg/mL | COC(=O)CCC(=O)Nc1cc(C(=O)Nc2cc(C(=O)Nc3nc(C(=O)NCCCN(C)C)c(CCC(C)C)s3)n(C)c2)n(C)c1 |
| > 32 µg/mL | CC(C)CCn1cc(NC(=O)c2cc(NC(=O)c3cc(NC(=N)c4cnc5ccccc5c4)cn3C)cn2C)cc1C(=O)NCCCN(C)C.O=C(O)C(F)(F)F.O=C(O)C(F)(F)F |

Test system: Klebsiella pneumoniae
Test: microbe, parasite or virus in culture
Conditions: ATCC 700603, 18 h, ASSAY_TEST Inhibition of Bacterial Growth, detection method Absorption (OD600), MEDIA CAMHB, plate type 384well, NBS, CORNING #3640
Description: Antibacterial activity against Klebsiella pneumoniae MDR ATCC 70063 (CO-ADD:GN_003); MIC in CAMBH media using NBS plates, by OD(600)

| SMILES | MIC |
| --- | --- |
| CC(=N)Nc1cc(C(=O)Nc2cc(C(=O)Nc3cc(C(=O)NCCCN(C)C)n(C)c3)n(C)c2)n(C)c1.O=C(O)C(F)(F)F.O=C(O)C(F)(F)F | > 32 µg/mL |
| CC(C)c1sc(NC(=O)c2cc(NC(=O)c3cc(NC(=O)c4cc5ccccc5cn4)cn3C)cn2C)nc1C(=O)NCCN1CCOCC1.O=C(O)C(F)(F)F | > 32 µg/mL |
| COc1cccc(/C=C/c2ccc(C(=O)Nc3cc(C(=O)Nc4cc(C(=O)NCCN5CCOCC5)n(C(C)C)c4)n(C)c3)cc2)c1.O=C(O)C(F)(F)F | > 32 µg/mL |

Results, then the compound that gave them:

| MIC | SMILES |
| --- | --- |
| > 32 µg/mL | COc1ccc(/C=C/c2ccc(C(=O)Nc3cc(C(=O)Nc4cc(C(=O)NCCN5CCC(O)CC5)n(C)c4)n(C)c3)cn2)cc1.O=C(O)C(F)(F)F.O=C(O)C(F)(F)F |
| > 32 µg/mL | COC(=O)CCC(=O)Nc1cc(C(=O)Nc2cc(C(=O)Nc3nc(C(=O)NCCCN(C)C)c(CCC(C)C)s3)n(C)c2)n(C)c1 |
| > 32 µg/mL | CC(C)CCn1cc(NC(=O)c2cc(NC(=O)c3cc(NC(=N)c4cnc5ccccc5c4)cn3C)cn2C)cc1C(=O)NCCCN(C)C.O=C(O)C(F)(F)F.O=C(O)C(F)(F)F |

Test system: Candida albicans
Test: microbe, parasite or virus in culture
Conditions: ATCC 90028, ASSAY_TEST Inhibition of Fungal Growth, detection method Absorption (OD530), plate type 384well, NBS, CORNING #3640
Description: Antifungal activity against Candida albicans ATCC 90028 (CO-ADD:FG_001); MIC in YNB media using NBS plates, by OD630

| SMILES | MIC |
| --- | --- |
| CC(=N)Nc1cc(C(=O)Nc2cc(C(=O)Nc3cc(C(=O)NCCCN(C)C)n(C)c3)n(C)c2)n(C)c1.O=C(O)C(F)(F)F.O=C(O)C(F)(F)F | > 32 µg/mL |
| CC(C)c1sc(NC(=O)c2cc(NC(=O)c3cc(NC(=O)c4cc5ccccc5cn4)cn3C)cn2C)nc1C(=O)NCCN1CCOCC1.O=C(O)C(F)(F)F | > 32 µg/mL |
| COc1cccc(/C=C/c2ccc(C(=O)Nc3cc(C(=O)Nc4cc(C(=O)NCCN5CCOCC5)n(C(C)C)c4)n(C)c3)cc2)c1.O=C(O)C(F)(F)F | > 32 µg/mL |

Now from value to compound:

| MIC | SMILES |
| --- | --- |
| > 32 µg/mL | COc1ccc(/C=C/c2ccc(C(=O)Nc3cc(C(=O)Nc4cc(C(=O)NCCN5CCC(O)CC5)n(C)c4)n(C)c3)cn2)cc1.O=C(O)C(F)(F)F.O=C(O)C(F)(F)F |
| > 32 µg/mL | COC(=O)CCC(=O)Nc1cc(C(=O)Nc2cc(C(=O)Nc3nc(C(=O)NCCCN(C)C)c(CCC(C)C)s3)n(C)c2)n(C)c1 |
| > 32 µg/mL | CC(C)CCn1cc(NC(=O)c2cc(NC(=O)c3cc(NC(=N)c4cnc5ccccc5c4)cn3C)cn2C)cc1C(=O)NCCCN(C)C.O=C(O)C(F)(F)F.O=C(O)C(F)(F)F |

— ChEMBL document CHEMBL4513139, “CO-ADD screening of University of Strathclyde (UK) compounds”
